Entries after “also recorded” stand apart in the source; their conditions may differ.
How the values were obtained:
MIAPACA2 cells [1] = experiment: Pulse-chase study with tyrosine-derived intermediates after two weeks of 13C9-Tyr labelling; format: cell-based, human; settings: for effect on intracellular levels of the other Tyr-derived metabolites: exogenous unlabelled metabolite; for increase of the fraction of unlabelled (non-labelled) CoQ10: unlabelled intermediate added in the presence of 13C9-Tyr, 21% O2
Experimental: Using the same experimental scheme, the incorporation of Tyr-derived metabolites into CoQ10 was measured. […] For metabolomics, briefly, cells were washed in 4° C. 0.9% saline and metabolites were extracted with 46% methanol:23% H2O:[…] chloroform that contained a labelled amino acid standard mix (MSK-A2-1.2, Cambridge Isotope Laboratories, Inc.). Enzymatic assay samples were extracted using 80% methanol: 20% H2O that contained labelled amino acid standards. Extracts were placed into 1.5 mL Eppendorf tubes, vortexed at 4° C. for 10 min and centrifuged at 4° C. for 10 min at 17,200×g in a microcentrifuge. The aqueous phase was transferred to vials for GC-MS or Eppendorf tubes for LC-MS. Polar samples were evaporated in a […] and samples were resolved by GC-MS or LC-MS. Lipid samples were dried using a stream of N2 (for ^18O labelling studies) or air. Metabolite and lipid extracts were submitted to the […] Metabolomics Core Resource Laboratory. For polar metabolomics, the LC column was a Millipore ZIC-pHILIC (2.1×150 […], 5 μm bead size) coupled to a Dionex […] 3000 system. The column oven temperature was held at 25° C. The flow rate was 100 μL/min, and the injection volume was 1 μL. Buffer A was 10 mM ammonium carbonate in water, pH 9, and Buffer B was neat acetonitrile. The gradient profile was 80-20% B (0-30 min), 20-80% B (30-31 min), and 80-80% B (31-42 min). MS Analyses were carried out on a Thermo Q Exactive HF mass spectrometer using a heated electrospray ionization (HESI) source. The method duration was 30 min using a polarity-switching, top 5 method. The spray voltage for both positive and negative ion modes was 3.5 kV. The capillary temperature was 320° C. with a maximum spray current of 100 ρA. The full MS scan was carried out at 120,000 resolution with a scan range of 67-1000 m/z. For ^18O2 labelling experiments, full MS scans were carried out at 240,000 resolution at the same scan range. Tandem MS spectra were obtained at 15,000 resolution. All data were acquired in profile mode. Peak heights were analyzed using Xcalibur (ThermoFisher Scientific). Lipid metabolomics were acquired using a Waters CSH-C18 (2.1×100 mm, 1.7 μm) column coupled to a Dionex […] 3000 system. The column oven temperature was held at 55° C. The flow rate was 300 μL/min and the injection volume was 1 μL. Buffer A was 60:40 acetonitrile:water, 0.1% formic acid and Buffer B was 90:10 isopropanol:acetonitrile, 10 mM ammonium formate. The gradient profile was 40-43% B (0-1.25 min), 43-50% B (1.25-2 min), 50-54% B (2-11 min), 54-70% B (11-12 min), 70-99% B (12-18 min), […], 99-40% B (23-24 min), hold at 40% B (1 min). MS Analyses were carried out on a Thermo Q Exactive HF mass spectrometer using a heated electrospray ionization (HESI) source. The method duration was 20 minutes using a polarity-switching, top 10 method. The spray voltage for both positive and negative ion modes was 3.5 kV. The capillary temperature was 320° C. with a maximum spray current of 100 ρA. The full MS scan was carried out at 120,000 resolution with a scan range of 350-2000 m/z. For ^18O2 labelling experiments, full MS scan was carried out at 240,000 resolution at the same scan range. Tandem MS spectra were obtained at 15,000 resolution. All data were acquired in profile mode. Peak heights were analyzed using Xcalibur (ThermoFisher Scientific).

MIAPACA2 cells [2] = experiment: 3D growth assay; format: cell-based, human; settings: HPDL KO cells, 1 mM, three days
Experimental: For the 3D growth assay, approximately 2,500 cells were seeded into a low-attachment 96-well plate containing DMEM+10% diaFBS and 5% Matrigel. Cells were grown for three days at 37° C. and 5% CO2. Cells were also treated or without 1 mM 4-HMA or 4-HB for the duration of the assay. To measure 3D growth with the CyQUANT Cell Proliferation Assay kit, plates were frozen at −80° C., thawed at room temperature, and equal volumes of 2× CyQUANT reagent+lysis buffer was added to the wells. As a control, wells containing media+5% Matrigel and no cells were used as blanks. CyQUANT measurements were performed as described in the manufacturer's instructions.

MIAPACA2 cells [3] = experiment: Oxygen consumption rate (OCR) in spheroids; format: cell-based, human; settings: HPDL KO cells, 1 mM, 3D conditions
Experimental: For measurement of oxygen consumption in spheroids, oxygen consumption rate (OCR) was measured with an XF96 analyzer (Seahorse Bioscience) and the Seahorse XFe96 Spheroid FluxPak, as described by the manufacturer's protocol. Spheroids were generated by seeding 40,000 cells per well into a low-attachment U-bottom 96-well plate with DMEM+10% diaFBS and 5% Matrigel. If indicated, spheroids were treated with or without 1 mM 4-HMA or 4-HB for the duration of the assay. Spheroids were allowed to form for three days before measuring oxygen consumption measurement. Each spheroid was transferred to a Spheroid FluxPak plate containing DMEM (25 mM glucose, 4 mM glutamine, and without pyruvate, phenol red and bicarbonate), and allowed to equilibrate for 1 hr at 37° C., no CO2. OCR measurements were normalized to size of the spheroid.

HPDL [4] = experiment: HPDL levels in the cell after addition of HPDL products; format: cell-based
human cells = experiment: 18O2-GASSP labelling of human cells, untargeted polar metabolomics, with or without IOX1; format: cell-based; settings: 18O labelling of the metabolite in cells treated with IOX1 (dioxygenase inhibitor), 24 hours
Experimental: To map the molecular fate of O2 in metabolic pathways in living cells, GASSP was used to carry out ^18O2 labelling in cell lines of different tissue origins at ^18O2 concentrations that represented physiological (3%), hypoxic (1%), and severely hypoxic (0.2%) oxygen tensions found in tissues and tumours^7. At the end of each run, polar metabolites were extracted and untargeted polar metabolomics using liquid chromatography-high resolution mass spectrometry (LC-MS) were carried out to identify metabolites labeled with ^18O.
A list of unique features identified by untargeted metabolomics that were >0.25% (natural abundance of ^18O is 0.2%) labelled by ^18O atoms in each cell line at each oxygen tension was generated. In addition, background signal was controlled by requiring that ^18O labeled peaks had to have a signal that was two-fold greater than naturally occurring isotopes found in non-labelled (^16O) metabolite cell extracts. To determine the proportion of unique ^18O labelled features that were due to dioxygenase activity, cells were treated with a pan-dioxygenase inhibitor (IOX1) at concentrations that inhibit iron-dependent dioxygenases, such as the HIF1α prolyl hydroxylases (FIGS. 5E-5F) and identified ^18O labelled polar metabolites. This list of ^18O metabolites was generated by identifying all features in the unlabelled samples, filtering these features against blank samples to remove background peaks, and calculating the fractional ^18O labelling with the assumption that a metabolite would have no more than three oxygen atoms labelled, followed by manual curation of labelled features (FIG. 1B and FIG. 5G). […] These ^18O-labelled features were termed the oxy-metabolome.
To determine the identities of the labeled metabolites, the list of ^18O labelled features was annotated to their corresponding unlabelled metabolites using retention time matching, tandem mass spectrometry (MS2) fragmentation patterns, and database searching.
All steps involved in setting up labelling with ^18O2 were performed at room temperature and inside a chemical fume hood. The procedure may vary depending on the type and number of tissue culture plates in the chamber and the amount of media in the plates. Users must test the system by using ^16O2:CO2:N2 or other unlabelled gases to optimize conditions for their needs and avoid consumption of costly labelled gases. Cells were treated with or without 5 μM MG132, 500 μM IOX1, 250 μM DFO, or 70 μM ascorbate, before placing tissue culture plates into the modular incubator chamber (MIC) containing a wireless oxygen sensor and a 15 cm dish of water to maintain humidity. Next, the clamps were closed to form an air-tight seal between the lid and platform of the MIC. […] N2 flushing was repeated for a total of three times, or until the sensor in the chamber stabilized at 0% O2 for 10 minutes.

HPDL [5] = target: T1, HPDL (Homo sapiens, UniProt Q96IR7); experiment: HPDL enzymatic assay with immunopurified HPDL-FLAG; format: biochemical; settings: 400 μM substrate, 37° C., 21% 16O2, 1 hour
T1 construct: made in house; host or cells: MIAPACA2 sgHPDL #3 (HPDL-knockout) cells stably infected with the pLenti6.2 lentiviral vector; anti-FLAG M2 magnetic bead immunoprecipitation
T1 sequence (Q96IR7 1-371): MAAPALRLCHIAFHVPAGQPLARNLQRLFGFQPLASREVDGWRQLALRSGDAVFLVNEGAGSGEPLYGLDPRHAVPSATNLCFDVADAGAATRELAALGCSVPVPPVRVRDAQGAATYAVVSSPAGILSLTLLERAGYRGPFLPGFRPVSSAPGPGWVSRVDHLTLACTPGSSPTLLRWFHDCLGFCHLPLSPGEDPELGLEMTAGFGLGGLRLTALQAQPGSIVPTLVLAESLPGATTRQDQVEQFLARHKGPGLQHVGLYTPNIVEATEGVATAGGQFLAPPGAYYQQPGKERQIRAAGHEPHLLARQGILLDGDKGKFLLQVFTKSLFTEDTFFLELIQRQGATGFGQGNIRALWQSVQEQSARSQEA
Experimental: Homogentisate, the product of HPD, was not produced in any of the present enzymatic assays. […] This directly confirmed that HPDL activity, and not a potential HPDL-interacting enzyme, was needed for 4-HMA synthesis.
For the HPDL enzymatic assay, cell lysates were generated in TNE lysis buffer (50 mM Tris-HCl pH 8.0, 150 mM NaCl, 2 mM EDTA, and 1% NP-40, supplemented with protease (ThermoFisher Scientific) and phosphatase (10 mM NaF, 10 mM β-glycerophosphate, and 10 mM sodium pyrophosphate) inhibitors. HPDL-FLAG was immunoprecipitated using anti-FLAG M2 magnetic beads (Millipore Sigma, M8823). Cell lysates were incubated with anti-FLAG M2 magnetic beads for 1 hour at 4° C. on a rotating platform. Beads were washed four times with TNE lysis buffer, and then 10% and 90% of the immunopurified protein was used for immunoblotting or enzymatic assay, respectively. […] At the end of the assay, 10 uL of assay buffer was retrieved and prepared for analysis by gas chromatography-mass spectrometry (GC-MS, see Metabolomics section).

| SMILES | effect on intracellular levels of the other Tyr-derived metabolites (MIAPACA2 cells [1]; 24 hours) | increase of the fraction of unlabelled (non-labelled) CoQ10 (MIAPACA2 cells [1]; 24 hours) | 3D growth (MIAPACA2 cells [2]) | OCR (MIAPACA2 cells [3]) | HPDL levels in the cell (HPDL [4]) | IOX1 Sensitive (Yes/No) (human cells) | 4-HMA production by HPDL from the substrate (HPDL [5]) | incorporation into CoQ10 (MIAPACA2 cells [1]) | effect on 4-HB levels (MIAPACA2 cells [1]; exogenous metabolite, 24 hours) |
| --- | --- | --- | --- | --- | --- | --- | --- | --- | --- |
| O=C(O)c1ccc(O)cc1 [Metabolite 4-HB, 4-hydroxybenzoic acid] | did not change Tyr, 4-HPPA, 4-HPLA, and 4-HMA levels | 30% | increased | increased | reduce |  |  |  |  |
| N[C@@H](Cc1ccc(O)cc1)C(=O)O [Tyr, tyrosine] |  |  |  |  |  | Yes | not |  |  |
| O=C(O)C(O)c1ccc(O)cc1 (racemic) [Metabolite 4-HMA, 2-hydroxy-2-(4-hydroxyphenyl)acetic acid] | had no effect on Tyr, 4-HPPA and 4-HPLA levels | 30% | increased | increased | reduce | Yes |  | incorporated into CoQ10 | minimal effect |
| O=C(O)C(=O)Cc1ccc(O)cc1 [Metabolite 4-HPPA, 4-hydroxyphenylpyruvate] |  | 30% |  |  |  |  | resulted in the generation of 4-HMA; also recorded: synthesized 4-HMA |  |  |
